ChEMBL document CHEMBL1156139, “N-Bridged bicyclic sulfonamides as inhibitors of gamma-secretase” (Bioorg Med Chem Lett, 2009)

Columns and labels:
Liver microsomes [1] = settings: human, 0.5 h, 2 µM
[2] = mouse, microsomes, 0.5 h, 2 µM
in vitro [3] = settings: mouse, liver microsomes
in vitro [4] = settings: human, liver microsomes
[5] = Half life in rat; assay type: ADME, organism-based; settings: in vivo
[6] = Clearance in rat; assay type: ADME, organism-based; settings: in vivo
[7] = AUC in rat; assay type: ADME, organism-based; settings: plasma
[8] = Oral bioavailability in rat; assay type: ADME, organism-based; settings: in vivo
in vitro [9] = settings: human, liver microsomes; remark: listed apart in the source
in vitro [10] = settings: mouse, liver microsomes; remark: listed apart in the source
[11] = mouse, microsomes, 0.5 h, 1 µM
Liver microsomes [12] = settings: human, 0.5 h, 1 µM

| SMILES | Stability (Liver microsomes [1]) | Stability [2] | remaining at 0.5 h, 1 µM (in vitro [3]; Stability) [%] | remaining at 0.5 h, 1 µM (in vitro [4]; Stability) [%] | remaining at 0.5 h, 2 µM (in vitro [9]; Stability) [%] | remaining at 0.5 h, 2 µM (in vitro [10]; Stability) [%] | Stability [11] | Stability (Liver microsomes [12]) | other results |
| --- | --- | --- | --- | --- | --- | --- | --- | --- | --- |
| O=S(=O)(c1ccc(Cl)cc1)N1C2Cc3[nH]ncc3C1CC(/C=C\C(F)(F)F)C2 (stereo unspecified) | Not Active | Not Active | 17 | 38 |  |  |  |  |  |
| O=S(=O)(c1ccc(Cl)cc1)N1C2CCCC1c1cn[nH]c1C2 (stereo unspecified) |  |  | 15 | 48 | 0 | 5 |  |  | half-life [5]: 0.4 h; clearance [6]: 38.9 mL/min/kg; AUC [7]: 0.16 µM·h; bioavailability [8]: 2% |
| CS(=O)(=O)N1CC2Cc3[nH]ncc3C(C1)N2S(=O)(=O)c1ccc(Cl)cc1 (stereo unspecified) |  |  |  |  |  |  |  |  | remaining at 0.5 h, 1 µM (in vitro [3]): 80%; remaining at 0.5 h, 1 µM (in vitro [4]): 84%; remaining at 0.5 h, 2 µM (in vitro [9]): 55%; remaining at 0.5 h, 2 µM (in vitro [10]): 96% |
| N#CC1CC2Cc3[nH]ncc3C(C1)N2S(=O)(=O)c1ccc(Cl)cc1 (stereo in doubt; form 1) |  |  |  |  |  |  | 80% | 72% |  |
| O=S(=O)(c1ccc(Cl)cc1)N1C2COCC1c1cn[nH]c1C2 (stereo in doubt) | 86% | 100% |  |  |  |  | 80% | 78% | half-life [5]: 1.15 h; clearance [6]: 31.2 mL/min/kg; AUC [7]: 2.9 µM·h; bioavailability [8]: 19% |
| O=S(=O)(c1ccc(Cl)cc1)N1C2Cc3[nH]ncc3C1CC(/C=C/Cl)C2 (stereo unspecified) |  |  | 7 | 6 | 1 | 37 |  |  |  |
| O=C(O)C1CC2Cc3[nH]ncc3C(C1)N2S(=O)(=O)c1ccc(Cl)cc1 (stereo unspecified) | Not Active | Not Active |  |  |  |  | Not Active | Not Active |  |
| O=S(=O)(c1ccc(Cl)cc1)N1C2Cc3[nH]ncc3C1CC(/C=C/C(F)(F)F)C2 (stereo unspecified) |  |  | 36 | 6 | 2 | 39 |  |  |  |
| N#CC1CC2Cc3[nH]ncc3C(C1)N2S(=O)(=O)c1ccc(Cl)cc1 (stereo in doubt; form 2) | Not Active | Not Active | 86 | 68 |  |  |  |  |  |
| O=S(=O)(c1ccc(Cl)cc1)N1C2COCC1c1cn[nH]c1C2 (stereo in doubt; 32) |  |  | 75 |  | 71 | 93 |  | 100% |  |
| CN(C)C(=O)N1CC2Cc3[nH]ncc3C(C1)N2S(=O)(=O)c1ccc(Cl)cc1 (stereo unspecified) | Not Active | Not Active | 56 | 86 |  |  |  |  |  |
| O=S(=O)(c1ccc(Cl)cc1)N1C2Cc3[nH]ncc3C1CC(/C=C\Cl)C2 (stereo unspecified) | Not Active | Not Active | 3 | 14 |  |  |  |  |  |
| N#CC1CC2Cc3[nH]ncc3C(C1)N2S(=O)(=O)c1ccc(Cl)cc1 (stereo in doubt) |  |  |  |  | 45 | 81 | 74% | 70% | half-life [5]: 1.02 h; clearance [6]: 28.4 mL/min/kg; AUC [7]: 3.4 µM·h; bioavailability [8]: 21% |
| Cl.O=S(=O)(c1ccc(Cl)cc1)N1C2COCC1c1cn[nH]c1C2 (stereo unspecified) | 71% | 94% |  |  |  |  | 78% | 81% |  |
